Source: patent US5328830A, “Potassium channel modulators” (Miles Inc., priority 1992, dated 1994)
Where “and” joins values, the source holds several entries; their conditions need not be identical. Equal entries are not always repeated. Structures can show the parent of a compound that is named as a salt. Where two headings read alike, the source gives them in different places.

Columns and labels:
[1] = system: CMPD-I-sensitive, K^+ channel binding site; experiment: [^3 H]CMPD-I ligand binding to intact RINm5F cells; parameters: species or system rat; details: for inhibition of [^3 H]CMPD-I binding: result in words
Procedure: The cells were fed three times a week and passed weekly with 0.25% trypsin/0.02% EDTA (JRH Biosciences, Lenexa, Kans.). For intact cell binding experiments, RINm5F cells were plated onto 60 mm polystyrene petri dishes (Corning) at 5×10^6 cells/dish and grown for 3 days without a change of media. Alternatively, cells were seeded 1×10^6 cells/dish and grown for 7 days with the last feeding two days prior to use. Final cell density was 10-20 ×10^6 cells/dish. […] Intact cell binding was performed with the cells attached to the dishes. Binding was terminated by three successive 3 ml washes of cold (4° C.) buffer. Cells were removed from the dish in 1.6 ml of 0.5 N NaOH, briefly sonicated and radioactivity was quantitated with a liquid scintillation counter using 10 ml cocktail (Ultima Gold, Packard). Statistical analysis to determine KD and BMax was accomplished using nonlinear regression (Enzfitter, Elsevier-Biosoft, Cambridge, UK). IC50 values were determined using a sigmoidal fit of mean percent inhibition versus log of concentration. Petri dishes were removed from the incubator, media was aspirated and the cells were washed (x2) with 3 ml oxygenated (5%CO2 /95%O2) Hanks Buffer (37° C.). Cells were allowed to equilibrate in buffer at least 10 minutes. […] Dishes were incubated at 37° C., in an atmosphere of 5% CO2 /95% for 90 minutes. Bound radioligand was separated from free by aspirating the buffer and washing the cells rapidly (x3) with 3 ml ice cold (4° C.) Hanks Buffer. Cells were then removed and solubilized with the addition of 1.6 ml 0.5N NaOH. Dishes were mounted on an orbit shaker (Lab Line) and rotated at 100-125 rpm for 20-45 minutes until the cells would detach from the plates. […] The solutions were vortexed and an aliquot (10 μ`) from each tube was removed for total protein determination. The remainder (1.59 ml) was transferred to a 20 ml vial with 10 ml Ultima Gold (Packard) scintillation cocktail and mixed until the aqueous phase cleared. Each sample was counted for at least one minute by a liquid scintillation system set for counting tritium. Total protein content of each dish was determined by the method of Bradford with bovine serum albumin used as the standard. […] Percent Inhibition of specific binding by test compounds was determined by calculating: 100-[(Cpm (with Drug)-Nonspecific cpm.div.Specific cpm)×100](Basic program) Free and Bound radioligand was calculated (Basic program) and a saturation curve based on a nonlinear regression fit of the data was used to determine a KD (nM) and Bmax (fmoles/mg total cellular protein) of binding (Enzfitter, Id.). Mean percent inhibition of binding at the concentrations tested for each drug was fit to a sigmoidal function. IC50 values were calculated from the plot of the fraction of maximal inhibition versus Log of concentration (Enzfitter, Id.).

rat aorta = experiment: Aortic relaxation of rat aortic rings precontracted with 20 mM KCl; details: aortae depolarized with 20 mM KCl
Procedure: Male Long-Evans Hooded rats (200-400 g) were sacrificed by acute decapitation. Thoracic aortae were rapidly removed and placed in an oxygenated (100% O2) physiological saline solution (PSS) (pH 7.4) of the following composition in mM: NaCl, 130; KCl, 5.9; MgCl2, 1.2; CaCl2, 0.8; HEPES, 22 and glucose, 11.1. The aortae were trimmed of fat, cut into rings 3 mm in length, mounted in an organ bath containing 10 ml of oxygenated PSS at 37° C. and stretched to a resting tension of 2.0 g. The aortae were depolarized with 20 mM KCl and after contractile response had stabilized, vasodilators were added. The vasorelaxation produced by the drugs was reversed by glyburide (a potent antagonist of ATP-dependent K^+ channels, as described above). Prior to the aortic preparation, the instrument to measure changes in aortic tension was set up and each channel was statically calibrated for linearity using Class S metric weights from 1 to 5 grams, the range consistent with changes observed in this study. This instrument translates isometric changes in tension over time to an electrical signal expressed as a tracing that can be quantified by peak height. […] After a 90 minute equilibration the resting tension was readjusted to the baseline level. […] Percent relaxation of putative K^+ channel agonists was calculated as follows: 100-[(Peak Height (mm) after Drug.div.Initial Peak Height (mm) after 20 mM K^+)×100] […]

| SMILES | inhibition of [^3 H]CMPD-I binding [1] | other results |
| --- | --- | --- |
| [3H]c1cc([3H])c(NC(=C[N+](=O)[O-])NC(C)C(C)(C)C)c(OCC)c1 (single isomer, unassigned) [[^3 H]CMPD-I] |  | Kd ([1]; Scatchard analysis, single binding site (FIG. 3), read-out: apparent KD): 0.7 nM; Kd ([1]; determined by saturation analysis, read-out: KD): 2 nM; Kd ([1]; two additional experiments, read-out: KD): 2.3 nM and 2.4 nM |
| CC[N+](CC)(CC)CC [TEA] | inhibit binding |  |
| COc1ccc(Cl)cc1C(=O)NCCc1ccc(S(=O)(=O)NC(=O)NC2CCCCC2)cc1 [glyburide] | inhibit binding | reversal of vasorelaxation produced by the drugs (rat aorta): reversed |
| Cc1cnc(C(=O)NCCc2ccc(S(=O)(=O)NC(=O)NC3CCCCC3)cc2)cn1 [glypizide] | inhibit binding |  |
| Nc1cc(N2CCCCC2)nc(N)[n+]1OS(=O)(=O)[O-] [minoxidil sulfate] | inhibits binding |  |
| CC(N/C(=N\C#N)Nc1ccncc1)C(C)(C)C (centres unmarked) [pinacidil] | inhibited |  |
| C=C[C@H]1C[N@@]2CC[C@H]1C[C@@H]2[C@@H](O)c1ccnc2ccc(OC)cc12 [quinidine] | inhibit binding |  |
| C=C[C@H]1C[N@@]2CC[C@H]1C[C@H]2[C@H](O)c1ccnc2ccc(OC)cc12 [quinine] | inhibit binding |  |
